Assay results as given in patent US20210246144A1, “A SET OF MITOCHONDRIA-TARGETED COMPOUNDS” (MITOTECH S.A., priority 2017, published 2021).

Columns and labels:
[1] = test system: isolated mitochondria or live cultures of human cells; settings: cited from earlier work
[2] = relative to the antioxidant concentrations; cited from earlier work
[3] = test system: isolated mitochondria; settings: cited from earlier work
[4] = test system: mitochondrial membrane potential; assay: mitochondrial uncoupling (protonophore), decrease of mitochondrial membrane potential; settings: causes decrease in mitochondrial membrane potential and reduction of ROS production by mitochondria
[5] = neuroprotective and nephroprotective properties
Description: (§1) Dibromoalkanes (60, 61) were heated with (triphenyl)phosphine in benzene at 80° C., and the obtained bromoalkyl(triphenyl)phosphonium bromides (62, 63) were reacted with fluorescein in the presence of sodium carbonate. As a result, bromides of {4-[2-(6-hydroxy-3-oxo-3H-xanthen-9-yl)benzoyloxy]butyl}(triphenyl)phosphonium (64) and {10-[2-(6-hydroxy-3-oxo-3H-xanthen-9-yl)benzoyloxy]decyl}(triphenyl)phosphonium (65).

[6] = fluorescent uncoupler activity
Description: as §1

COc1cc2c(cc1OC)-c1c(CC(=O)OCCCCCCCCCC3=CC(=O)C(C)=C(C)C3=O)c3ccc(OC)c(OC)c3c[n+]1CC2 [SkQPalm, 13-(2-{[9-(4,5-dimethyl-3,6-dioxocyclohexa-1,4-dien-1-yl)nonyl]oxy}-2-oxoethyl)-3,4,10,11-tetramethoxy-7,8-dihydro-6λ^5-azatetraphen-6-ylium]
accumulation in isolated mitochondria or live human cells [1]: accumulate in isolated mitochondria or live cultures of human cells | prooxidant effect [2]: manifested at significantly higher concentrations | inhibition of lipid peroxidation [3]: inhibit lipid peroxidation in isolated mitochondria in nanomolar concentrations

COc1ccc2c(CC(=O)OCCCCCCCCCC3=CC(=O)C(C)=C(C)C3=O)c3[n+](cc2c1OC)CCc1cc2c(cc1-3)OCO2 [SkQBerb, 21-(2-{[9-(4,5-dimethyl-3,6-dioxocyclohexa-1,4-dien-1-yl)nonyl]oxy}-2-oxoethyl)-16,17-dimethoxy-5,7-dioxa-13λ^5-azapentacyclo[11.8.0.0^21.0.0^4.8.0^15.20]henicosa-1(21),2,4(8),9,13,15(20),16,18-octaen-13-ylium]
accumulation in isolated mitochondria or live human cells [1]: accumulate in isolated mitochondria or live cultures of human cells | prooxidant effect [2]: manifested at significantly higher concentrations | inhibition of lipid peroxidation [3]: inhibit lipid peroxidation in isolated mitochondria in nanomolar concentrations

CC/N=c1/cc2oc3cc(NCC)c(C)cc3c(-c3ccccc3C(=O)OCCCCCCCCCCC3=CC(=O)C(C)=C(C)C3=O)c-2cc1C.Cl [SkQR1]
mitochondrial uncoupling (protonophore) activity [4]: soft cationic mitochondrial uncouplers (protonophores)

{4-[2-(6-hydroxy-3-oxo-3H-xanthen-9-yl)benzoyloxy]butyl}(triphenyl)phosphonium [Compound 64]
neuroprotective and nephroprotective properties [5]: neuroprotective and nephroprotective properties | uncoupler activity [6]: fluorescent uncouplers

CCCCCCCCCCCCOC(=O)c1ccccc1-c1c2cc(C)/c(=N/CC)cc-2oc2cc(NCC)c(C)cc12 [Compound 29, dodecyl 2-[(3E)-6-(ethylamino)-3-(ethylimino)-2,7-dimethyl-3H-xanthen-9-yl]benzoate]
mitochondrial uncoupling (protonophore) activity [4]: soft cationic mitochondrial uncouplers (protonophores)

{10-[2-(6-hydroxy-3-oxo-3H-xanthen-9-yl)benzoyloxy]decyl}(triphenyl)phosphonium [Compound 65]
neuroprotective and nephroprotective properties [5]: neuroprotective and nephroprotective properties | uncoupler activity [6]: fluorescent uncouplers

CCCCCCCCCCOC(=O)c1ccccc1-c1c2cc(C)/c(=N/CC)cc-2oc2cc(NCC)c(C)cc12 [Compound 28, decyl 2-[(3E)-6-(ethylamino)-3-(ethylimino)-2,7-dimethyl-3H-xanthen-9-yl]benzoate]
mitochondrial uncoupling (protonophore) activity [4]: soft cationic mitochondrial uncouplers (protonophores)
